Measurements taken from patent publication USRE38825E1, “Glyphosate tolerant plants” (Monsanto Technology LLC, priority 1990, dated 2005).

Columns and labels:
Type in all cases: biochemical, bacterial isolate LBAA (Pseudomonas strain LBAA)
Settings in all cases: substrate glyphosate
[1] = target: LBAA glyphosate oxidoreductase variant w1v2w3 (SER84, ARG153, HIS334) (Ochrobactrum sp. G-1, UniProt D2KI28, K153R/S2A); test: Kinetic analysis of domain switches, clone w1v2w3
Experimental: (§1) The mutagenesis procedure used was that of Mn++-poisoned PCR and the template was a linearized glyphosate oxidoreductase gene plasmid containing the synthetic glyphosate oxidoreductase gene (SEQ ID NO:8). The oligonucleotide primers used were homologous to regions in the vector and flanking the glyphosate oxidoreductase gene. The PCR conditions employed were as follows: 1 minute at 94° C., 2 minutes at 55° C., and 3 minutes at 72° C. and with 35 cycles. A 5:1 ratio of dCTP+dGTP+TTP to dATP was used. The reactions contained MnCl2 at 125, 250, 375, or 500 μM. After the reaction, the amplified product was recloned into a vector containing a weak E. coli promoter. This vector was a pBR327 derivative containing the araBAD promoter and suitable cloning sites. […] Growth rates were determined by measuring A550 over a 96 hour period. […] Protein concentrations were determined using the Bio-Rad protein dye-binding assay. […] Ten minutes was determined to be the optimal time for the enzyme assay using 10 μg lysate. […] Enzyme activity was determined from the amount of glyoxylate-DNPH adduct formed by measuring A520 against a standard of glyoxylate. […] The Km and Vmax were determined from Lineweaver Burk, Eadie-Hofstee and hyperbolic kinetic plots. […]

[2] = target: LBAA glyphosate oxidoreductase variant w1v2v3 (SER84, ARG153, ARG334) (Ochrobactrum sp. G-1, UniProt D2KI28, H334R/K153R/S2A); test: Kinetic analysis of domain switches, clone w1v2v3
Experimental: as §1

[3] = target: LBAA glyphosate oxidoreductase variant v1w2w3 (GLY84, LYS153, HIS334) (Ochrobactrum sp. G-1, UniProt D2KI28, S2A/S84G); test: Kinetic analysis of domain switches, clone v1w2w3
Experimental: as §1

Structure (SMILES): O=C(O)CNCP(=O)(O)O [glyphosate, N-phosphonomethyl-glycine]
- VmKm [1]: 0.026
- VmKm [2]: 0.28
- VmKm [3]: 0.027
